# Reference: patent US11040027B2, “Protein kinase inhibitors for promoting liver regeneration or reducing or preventing hepatocyte death” (HEPAREGENIX GMBH, priority 2017, dated 2021)
# Columns and labels:
# C57BL/6N female mice = assay: In vivo survival study after Jo2 antibody injection; details: 30 mg/kg oral gavage 1 h before i.p. 0.8 μg/g Jo2 antibody; versus vehicle only; 24 h; FIG. 1
# Description: C57BL/6N female mice, age 6-9 weeks, purchased from Charles River Laboratories, Research Models and Services, Germany GmbH (Sulzfeld), were housed in accordance with the institutional guidelines of the University of TObingen, Germany. All animal experiments were approved by the German legal authorities.
# Three experiments with n=3, n=4 and n=6 animals per group were performed. At time point t=−1 h), mice were dosed by oral gavage with either 30 mg/kg of compound, mixed in 2% hydroxymethylcellulose, pH 4.0) or vehicle only. One hour later (t=0 h), all animals were intraperitoneally (i.p.) injected with 0.8 μg/g mouse weight of Jo2 antibody (BD Pharmingen, San Diego, Calif.) diluted in 0.9% NaCl.
# Mice were continuously monitored and survival was monitored all 15 min. After 24 h, all surviving animals were sacrificed.
# JNK1 = JNK1 (Homo sapiens, UniProt P45983); assay: KINOMEscan competition binding assay, selectivity JNK1 versus MKK4; details: Test conc 0.1 μM; ratio of percent of control; N/E* = PoC for JNK1 = 100
# Chain of JNK1 (P45983 1-384 isoform P45983-2): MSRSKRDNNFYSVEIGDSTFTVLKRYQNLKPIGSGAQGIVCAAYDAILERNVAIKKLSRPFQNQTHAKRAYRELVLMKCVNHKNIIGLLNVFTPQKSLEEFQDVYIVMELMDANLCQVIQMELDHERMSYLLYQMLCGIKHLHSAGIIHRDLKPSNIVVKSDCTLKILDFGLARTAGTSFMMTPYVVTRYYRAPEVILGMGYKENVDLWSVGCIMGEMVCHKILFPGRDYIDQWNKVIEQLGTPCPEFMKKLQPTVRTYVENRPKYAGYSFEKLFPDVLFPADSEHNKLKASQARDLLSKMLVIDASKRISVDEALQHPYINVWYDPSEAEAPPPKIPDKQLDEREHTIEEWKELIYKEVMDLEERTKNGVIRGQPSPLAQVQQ
# BRaf = BRaf (Homo sapiens, UniProt P15056); assay: KINOMEscan competition binding assay, selectivity BRaf versus MKK4; details: Test conc. 0.1 μM; ratio of percent of control; N/E* per footnote
# Chain of BRaf (P15056 whole entry): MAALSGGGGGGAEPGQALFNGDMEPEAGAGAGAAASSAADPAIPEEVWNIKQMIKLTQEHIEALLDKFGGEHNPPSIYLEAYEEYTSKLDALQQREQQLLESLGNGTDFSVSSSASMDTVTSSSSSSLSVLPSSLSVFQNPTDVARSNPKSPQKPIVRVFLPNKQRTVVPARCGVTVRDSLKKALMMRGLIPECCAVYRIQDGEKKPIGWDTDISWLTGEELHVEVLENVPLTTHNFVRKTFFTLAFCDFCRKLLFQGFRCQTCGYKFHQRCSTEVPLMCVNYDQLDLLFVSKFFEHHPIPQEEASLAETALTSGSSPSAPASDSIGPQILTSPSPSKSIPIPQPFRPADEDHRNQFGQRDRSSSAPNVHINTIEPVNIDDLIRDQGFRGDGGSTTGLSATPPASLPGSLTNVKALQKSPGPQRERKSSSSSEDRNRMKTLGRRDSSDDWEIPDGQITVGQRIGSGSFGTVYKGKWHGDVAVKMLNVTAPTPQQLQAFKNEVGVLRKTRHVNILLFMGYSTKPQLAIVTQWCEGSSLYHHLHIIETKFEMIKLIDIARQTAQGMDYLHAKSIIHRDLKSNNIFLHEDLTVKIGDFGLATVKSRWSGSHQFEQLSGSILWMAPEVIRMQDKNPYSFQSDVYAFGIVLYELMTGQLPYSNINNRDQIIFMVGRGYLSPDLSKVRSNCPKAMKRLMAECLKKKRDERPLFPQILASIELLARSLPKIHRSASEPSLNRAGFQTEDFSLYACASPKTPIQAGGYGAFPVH
# MKK4 active = target: T1, MKK4 active (Homo sapiens, UniProt P45985); assay: Radiometric protein kinase assay, MKK4 active; format: biochemical; details: substrate JNK1 KRKR, ATP 0.2 μM, read-out: MKK4 (potency derived from IC50-values)
# T1 construct: purchased ProQinase 0948-0000-1
# T1 sequence (P45985 1-399): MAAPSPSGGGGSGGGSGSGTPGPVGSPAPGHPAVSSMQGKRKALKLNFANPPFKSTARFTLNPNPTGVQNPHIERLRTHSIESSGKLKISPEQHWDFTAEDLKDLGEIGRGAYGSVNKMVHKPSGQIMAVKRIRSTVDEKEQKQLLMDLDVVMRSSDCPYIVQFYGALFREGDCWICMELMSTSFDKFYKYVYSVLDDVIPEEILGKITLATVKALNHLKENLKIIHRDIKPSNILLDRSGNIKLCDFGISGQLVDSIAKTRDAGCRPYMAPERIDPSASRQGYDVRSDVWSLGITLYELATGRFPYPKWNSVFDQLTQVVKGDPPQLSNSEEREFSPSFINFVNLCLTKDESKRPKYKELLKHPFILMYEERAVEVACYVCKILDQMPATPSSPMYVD
# Description: (§1) A radiometric protein kinase assay was used for measuring the kinase activity of the respective protein kinases. All kinase assays were performed in 96-well polypropylene plates. After the reactions were stopped, the assay mixtures were transferred to 96-well MSFC filter-plates (Millipore). The reaction mix was passed through the filter membrane by aspiration, the membrane was washed 3 times with 150 mM H3PO4, once with ethanol, dried and liquid scintillation cocktail was added. Radioactivity was determined by counting of the samples in a Microbeta multiwell scintillation counter (Wallac).
# (§2) b) Single Kinases • 20 μl standard assay buffer • 5 μl compound in 10% DMSO • 20 μl enzyme-substrate mix • 10 μl of substrate solution
# (§3) The reaction cocktails were incubated at 30° C. for 30 minutes.
# MKK4 = target: T2, MKK4 (Homo sapiens, UniProt P45985); assay: KINOMEscan competition binding assay, MKK4; details: read-out: Potency MKK4 (derived from % of control values, PoC)
# T2 sequence (P45985 84-399): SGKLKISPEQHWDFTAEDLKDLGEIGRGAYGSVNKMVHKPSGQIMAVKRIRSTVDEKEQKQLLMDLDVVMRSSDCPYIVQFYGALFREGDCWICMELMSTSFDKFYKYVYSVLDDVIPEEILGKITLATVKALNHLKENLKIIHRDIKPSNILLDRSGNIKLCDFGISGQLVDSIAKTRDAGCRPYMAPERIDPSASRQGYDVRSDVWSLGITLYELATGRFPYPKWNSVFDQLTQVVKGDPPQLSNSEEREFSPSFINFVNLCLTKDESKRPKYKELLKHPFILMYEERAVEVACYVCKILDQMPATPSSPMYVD
# Description: (§4) The assay was performed by combining three components: DNA-tagged kinase; immobilized ligand; and a test compound. The ability of the test compound to compete with the immobilized ligand was measured via quantitative PCR of the DNA tag.
# (§5) For investigation of the affinity to MKK4, MKK7 and JNK1, the kinases were produced in HEK-293 cells and subsequently tagged with DNA for qPCR detection. […] The liganded beads were blocked with excess biotin and washed with blocking buffer (SEABLOCK™ (Pierce), 1% BSA, 0.05% TWEEN®20, 1 mM DTT) to remove unbound ligand and to reduce nonspecific binding. […] All reactions were performed in polystyrene 96-well plates in a final volume of 0.135 mL. […] The kinase concentration in the eluates was measured by qPCR.
# (§6) The test compounds were provided as 10 mM stock solutions. The test solutions at indicated final concentrations were prepared at DiscoverX.
# MEKK2 = target: T3, MEKK2 (Homo sapiens, UniProt Q9Y2U5); assay: Radiometric protein kinase assay, MEKK2; format: biochemical; details: substrate Casein, ATP 0.2 μM; read-out: MEKK2 (potency derived from IC50-values)
# T3 construct: purchased ProQinase 0583-0000-1
# T3 sequence (Q9Y2U5 1-619): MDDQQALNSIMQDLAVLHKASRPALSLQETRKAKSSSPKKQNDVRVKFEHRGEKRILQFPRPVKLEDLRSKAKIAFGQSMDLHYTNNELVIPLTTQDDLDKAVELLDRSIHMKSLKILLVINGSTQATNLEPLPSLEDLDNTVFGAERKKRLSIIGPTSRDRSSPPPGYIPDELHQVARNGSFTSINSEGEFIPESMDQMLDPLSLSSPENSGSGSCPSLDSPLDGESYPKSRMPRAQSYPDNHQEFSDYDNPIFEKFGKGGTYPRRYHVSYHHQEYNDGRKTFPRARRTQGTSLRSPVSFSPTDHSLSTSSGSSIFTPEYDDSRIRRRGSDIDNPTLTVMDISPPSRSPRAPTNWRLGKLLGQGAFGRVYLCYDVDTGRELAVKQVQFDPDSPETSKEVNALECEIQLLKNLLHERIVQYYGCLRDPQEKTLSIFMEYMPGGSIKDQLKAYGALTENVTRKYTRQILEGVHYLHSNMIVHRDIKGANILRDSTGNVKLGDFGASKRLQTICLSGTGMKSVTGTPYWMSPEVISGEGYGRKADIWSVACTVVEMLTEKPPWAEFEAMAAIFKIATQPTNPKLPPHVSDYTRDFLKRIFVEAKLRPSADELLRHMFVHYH
# Description: as §1, §2, §3
# MKK7 = target: T4, MKK7 (Homo sapiens, UniProt O14733); assay: KINOMEscan competition binding assay, selectivity MKK7 versus MKK4; details: Test conc. 0.1 μM; ratio of percent of control; N/E* per footnote
# T4 sequence (O14733 1-419): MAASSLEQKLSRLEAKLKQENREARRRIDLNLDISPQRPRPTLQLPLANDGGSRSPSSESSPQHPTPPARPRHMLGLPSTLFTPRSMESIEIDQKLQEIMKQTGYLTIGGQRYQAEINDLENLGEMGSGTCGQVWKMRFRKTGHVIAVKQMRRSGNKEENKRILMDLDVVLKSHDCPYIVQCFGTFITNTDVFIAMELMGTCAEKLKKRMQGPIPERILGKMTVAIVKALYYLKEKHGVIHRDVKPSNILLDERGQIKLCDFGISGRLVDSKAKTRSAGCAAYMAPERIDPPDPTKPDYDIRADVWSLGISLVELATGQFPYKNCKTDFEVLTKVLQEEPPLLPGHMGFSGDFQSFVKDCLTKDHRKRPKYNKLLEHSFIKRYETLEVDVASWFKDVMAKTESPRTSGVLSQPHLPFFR
# Description: as §4, §5, §6
SMILES,survival rate (C57BL/6N female mice),Selectivity JNK1/MKK4 (JNK1),Selectivity BRaf/MKK4 (BRaf),IC50 (MKK4 active),remaining binding at 0.1 µM (MKK4),IC50 (MEKK2),Selectivity MKK7/MKK4 (MKK7)
"CCCS(=O)(=O)Nc1ccc(F)c(C(=O)c2c[nH]c3ncc(-c4ccc(Cl)cc4)cc23)c1F [Example 2, Propane-1-sulfonic acid {3-[5-(4-chloro-phenyl)-1H-pyrrolo[2,3-b]pyridine-3-carbonyl]-2,4-difluoro-phenyl}-amide]",significantly higher,–,–,–,–,–,–
CS(=O)(=O)Nc1cccc(C(=O)c2c[nH]c3ncc(-c4cc5c(cc4Cl)OCO5)cc23)c1F [Example 47],–,10,N/E* (PoC for JNK1 = 100),< 0.5 µM,< 10%,1 to 10 µM,9.7
CS(=O)(=O)Nc1cccc(C(=O)c2c[nH]c3ncc(-c4cc5c(cc4Cl)OCCO5)cc23)c1F [Example 48],–,8.4,N/E* (PoC for JNK1 = 100),1 to 10 µM,10 to 30%,> 10 µM,8.7
CCCCS(=O)(=O)Nc1cccc(C(=O)c2c[nH]c3ncc(-c4ccc(Cl)cc4)cc23)c1F [Example 50],–,N/E* (PoC for JNK1 = 100),7.0,< 0.5 µM,10 to 30%,> 10 µM,N/E* (PoC for JNK1 = 100)
CCCCS(=O)(=O)Nc1cccc(C(=O)c2c[nH]c3ncc(-c4ccc(OC)cc4Cl)cc23)c1F [Example 52],–,17,N/E* (PoC for JNK1 = 100),< 0.5 µM,< 10%,> 10 µM,N/E* (PoC for JNK1 = 100)
CCCCS(=O)(=O)Nc1cccc(C(=O)c2c[nH]c3ncc(-c4ccc5c(c4)OCO5)cc23)c1F [Example 53],–,N/E* (PoC for JNK1 = 100),56,< 0.5 µM,< 10%,1 to 10 µM,N/E* (PoC for JNK1 = 100)
CCCCS(=O)(=O)Nc1cccc(C(=O)c2c[nH]c3ncc(-c4ccc5c(c4)OCCO5)cc23)c1F [Example 54],–,55,36,< 0.5 µM,< 10%,1 to 10 µM,61
CCCCS(=O)(=O)Nc1cccc(C(=O)c2c[nH]c3ncc(-c4cc5c(cc4Cl)OCO5)cc23)c1F [Example 55],–,14,N/E* (PoC for JNK1 = 100),< 0.5 µM,< 10%,> 10 µM,N/E* (PoC for JNK1 = 100)
CCCCS(=O)(=O)Nc1cccc(C(=O)c2c[nH]c3ncc(-c4cc5c(cc4Cl)OCCO5)cc23)c1F [Example 56],–,24,N/E* (PoC for JNK1 = 100),< 0.5 µM,< 10%,> 10 µM,N/E* (PoC for JNK1 = 100)
